Measured values: patent USRE39591E1, “6-O-substituted ketolides having antibacterial activity” (Abbott Laboratories, priority 1996, dated 2007)
In brackets after ≈: the same amount, converted by molar mass.

Tested on: up to 32 different microorganisms
Test: in vitro antibacterial activity (MIC), agar dilution on Brain Heart Infusion (BHI) agar with Steers replicator
Type: cell-based
Conditions: unit assumed
Method: Representative compounds of the present invention were assayed in vitro for antibacterial activity as follows: Twelve petri dishes containing successive aqueous dilutions of the test compound mixed with 10 mL of sterilized Brain Heart Infusion (BHI) agar (Difco 0148-01-5) were prepared. Each plate was inoculated with 1:100 (or 1:10 for slow-growing strains, such as Micrococcus and Streptococcus) dilutions of up to 32 different microorganisms, using a Steers replicator block. The inoculated plates were incubated at 35°-37° C. for 20 to 24 hours. In addition, a control plate, using BHI agar containing no test compound, was prepared and incubated at the beginning and end of each test.
An additional plate containing a compound having known susceptibility patterns for the organisms being tested and belonging to the same antibiotic class as the test compound was also prepared and incubated as a further control, as well as to provide test-to-test comparability. Erythromycin A was used for this purpose.
After incubation, each plate was visually inspected. The minimum inhibitory concentration (MIC) was defined as the lowest concentration of drug yielding no growth, a slight haze, or sparsely isolated colonies on the inoculum spot as compared to the growth control.

[1] = Candida albicans CCH 442 (code TT)
[2] = Enterococcus faecism ATCC 8043 (code II)
[3] = Escherichia coli DC-2 (code SS)
[4] = Escherichia coli JUHL (code QQ)
[5] = Haemophilis influenzae DILL AMP R (code WW)
[6] = Micrococcus luteus ATCC 4698 (code PP)
[7] = Micrococcus luteus ATCC 9341 (code OO)
[8] = Mycobacterium smegmatis ATCC 114 (code UU)
[9] = Nocardia Asteroides ATCC9970 (code VV)
[10] = Staphylococcus aureus 1775 (code GG)
[11] = Staphylococcus aureus A5177 (code BB)
[12] = Staphylococcus aureus A-5278 (code CC)
[13] = Staphylococcus aureus ATCC 6538P (code AA)
[14] = Staphylococcus aureus CMX 553 (code FF)
[15] = Staphylococcus aureus CMX 642A (code DD)
[16] = Staphylococcus aureus NCTC10649M (code EE)
[17] = Staphylococcus epidermidis 3519 (code HH)
[18] = Streptococcus Pneumonia 5649 (code ZZA)
[19] = Streptococcus Pneumonia 5979 (code ZZ)
[20] = Streptococcus Pneumonia ATCC6303 (code XX)
[21] = Streptococcus Pneumonia GYR 1171 (code YY)
[22] = Streptococcus agalactiae CMX 508 (code KK)
[23] = Streptococcus bovis A-5169 (code JJ)
[24] = Streptococcus pyogenes 930 (code MM)
[25] = Streptococcus pyogenes EES61 (code LL)
[26] = Streptococcus pyogenes PIU 2548 (code NN)

| SMILES | MIC [1] [µg/mL] | MIC [2] [µg/mL] | MIC [3] [µg/mL] | MIC [4] [µg/mL] | MIC (Escherichia coli SS (code RR)) [µg/mL] | MIC [5] [µg/mL] | MIC [6] [µg/mL] | MIC [7] [µg/mL] | MIC [8] [µg/mL] | MIC [9] [µg/mL] | MIC [10] [µg/mL] | MIC [11] [µg/mL] | MIC [12] [µg/mL] | MIC [13] [µg/mL] | MIC [14] [µg/mL] | MIC [15] [µg/mL] | MIC [16] [µg/mL] | MIC [17] [µg/mL] | MIC [18] [µg/mL] | MIC [19] [µg/mL] | also measured |
| --- | --- | --- | --- | --- | --- | --- | --- | --- | --- | --- | --- | --- | --- | --- | --- | --- | --- | --- | --- | --- | --- |
| CCC1OC(=O)C(C)C(=O)C(C)C(OC2OC(C)CC(N(C)C)C2O)C(C)(OCC=Cc2ccc3ccccc3c2)CC(C)C(=O)C(C)C2NC(=O)OC12C (stereo not drawn) [Example 186, R is —CH2CH═CH-(2-naphthyl)] | > 100 | 0.05 (≈ 0.0654 µM) | > 100 | > 100 | 0.39 (≈ 0.51 µM) | 16 (≈ 20.9 µM) | 0.1 (≈ 0.131 µM) | < 0.005 | 0.2 (≈ 0.261 µM) | 0.1 (≈ 0.131 µM) | > 100 | 0.01 (≈ 0.0131 µM) | > 100 | 0.1 (≈ 0.131 µM) | 0.01 (≈ 0.0131 µM) | 0.1 (≈ 0.131 µM) | 0.1 (≈ 0.131 µM) | 0.1 (≈ 0.131 µM) | 1 (≈ 1.31 µM) | > 128 | MIC [20]: 0.03 µg/mL (≈ 0.0392 µM); MIC [21]: 0.015 µg/mL (≈ 0.0196 µM); MIC [22]: 0.01 µg/mL (≈ 0.0131 µM); MIC [23]: ≤ 0.005 µg/mL; MIC [24]: 3.1 µg/mL (≈ 4.05 µM); MIC [25]: 0.01 µg/mL (≈ 0.0131 µM); MIC [26]: 0.1 µg/mL (≈ 0.131 µM) |
| CCC1OC(=O)C(C)C(=O)C(C)C(OC2OC(C)CC(N(C)C)C2O)C(C)(OCC=Cc2cncc3ccccc23)CC(C)C(=O)C(C)C2NC(=O)OC12C (stereo not drawn) [Example 187, R is —CH2CH═CH-(4-isoquinolinyl)] | > 100 | 0.02 (≈ 0.0261 µM) | > 100 | 100 (≈ 131 µM) | 0.39 (≈ 0.509 µM) | 2 (≈ 2.61 µM) | 0.02 (≈ 0.0261 µM) | 0.02 (≈ 0.0261 µM) | 0.78 (≈ 1.02 µM) | 0.1 (≈ 0.131 µM) | > 100 | 0.1 (≈ 0.131 µM) | > 100 | 0.2 (≈ 0.261 µM) | 0.1 (≈ 0.131 µM) | 0.1 (≈ 0.131 µM) | 0.1 (≈ 0.131 µM) | 0.1 (≈ 0.131 µM) | 0.25 (≈ 0.326 µM) | > 16 | MIC [20]: 0.03 µg/mL (≈ 0.0392 µM); MIC [21]: 0.03 µg/mL (≈ 0.0392 µM); MIC [22]: 0.02 µg/mL (≈ 0.0261 µM); MIC [23]: ≤ 0.005 µg/mL; MIC [24]: 25 µg/mL (≈ 32.6 µM); MIC [25]: 0.01 µg/mL (≈ 0.0131 µM); MIC [26]: 0.1 µg/mL (≈ 0.131 µM) |
| CCC1OC(=O)C(C)C(=O)C(C)C(OC2OC(C)CC(N(C)C)C2O)C(C)(OCC=Cc2ccc3c(c2)OCO3)CC(C)C(=O)C(C)C2NC(=O)OC12C (stereo not drawn) [Example 188, R is —CH2CH═CH-(3,4-methylenedioxyphenyl)] | > 100 | 0.05 (≈ 0.0659 µM) | > 100 | > 100 | 0.78 (≈ 1.03 µM) | 8 (≈ 10.5 µM) | 0.2 (≈ 0.264 µM) | 0.02 (≈ 0.0264 µM) | 0.78 (≈ 1.03 µM) | 0.39 (≈ 0.514 µM) | > 100 | 0.1 (≈ 0.132 µM) | > 100 | 0.1 (≈ 0.132 µM) | 0.1 (≈ 0.132 µM) | 0.1 (≈ 0.132 µM) | 0.2 (≈ 0.264 µM) | 0.2 (≈ 0.264 µM) | 1 (≈ 1.32 µM) | > 64 | MIC [20]: 0.03 µg/mL (≈ 0.0395 µM); MIC [21]: 0.03 µg/mL (≈ 0.0395 µM); MIC [22]: ≤ 0.005 µg/mL; MIC [23]: ≤ 0.005 µg/mL; MIC [24]: 25 µg/mL (≈ 32.9 µM); MIC [25]: 0.01 µg/mL (≈ 0.0132 µM); MIC [26]: 0.1 µg/mL (≈ 0.132 µM) |
| CCC1OC(=O)C(C)C(=O)C(C)C(OC2OC(C)CC(N(C)C)C2O)C(C)(OCC=Cc2cccc3cccnc23)CC(C)C(=O)C(C)C2NC(=O)OC12C (stereo not drawn) [Example 189, R is —CH2CH-(8-quinolyl)] | > 100 | 0.05 (≈ 0.0653 µM) | 50 (≈ 65.3 µM) | 100 (≈ 131 µM) | 0.39 (≈ 0.509 µM) | 8 (≈ 10.4 µM) | 0.1 (≈ 0.131 µM) | 0.02 (≈ 0.0261 µM) | 0.78 (≈ 1.02 µM) | 0.05 (≈ 0.0653 µM) | > 100 | 0.1 (≈ 0.131 µM) | > 100 | 0.2 (≈ 0.261 µM) | 0.1 (≈ 0.131 µM) | 0.2 (≈ 0.261 µM) | 0.1 (≈ 0.131 µM) | 0.2 (≈ 0.261 µM) | 0.5 (≈ 0.653 µM) | > 32 | MIC [20]: 0.125 µg/mL (≈ 0.163 µM); MIC [21]: 0.06 µg/mL (≈ 0.0783 µM); MIC [22]: ≤ 0.005 µg/mL; MIC [23]: ≤ 0.005 µg/mL; MIC [24]: 50 µg/mL (≈ 65.3 µM); MIC [25]: ≤ 0.005 µg/mL; MIC [26]: 0.2 µg/mL (≈ 0.261 µM) |
| CCC1OC(=O)C(C)C(=O)C(C)C(OC2OC(C)CC(N(C)C)C2O)C(C)(OCC=Cc2ccc3[nH]ccc3c2)CC(C)C(=O)C(C)C2NC(=O)OC12C (stereo not drawn) [Example 190, R is —CH2CH═CH-(5-indolyl)] | > 100 | 0.02 (≈ 0.0265 µM) | 100 (≈ 133 µM) | 100 (≈ 133 µM) | 0.2 (≈ 0.265 µM) | 4 (≈ 5.31 µM) | 0.1 (≈ 0.133 µM) | 0.01 (≈ 0.0133 µM) | 0.78 (≈ 1.03 µM) | 0.1 (≈ 0.133 µM) | > 100 | 0.05 (≈ 0.0663 µM) | > 100 | 0.05 (≈ 0.0663 µM) | 0.02 (≈ 0.0265 µM) | 0.05 (≈ 0.0663 µM) | 0.02 (≈ 0.0265 µM) | 0.05 (≈ 0.0663 µM) | 0.5 (≈ 0.663 µM) | > 128 | MIC [20]: 0.06 µg/mL (≈ 0.0796 µM); MIC [21]: 0.03 µg/mL (≈ 0.0398 µM); MIC [22]: ≤ 0.005 µg/mL; MIC [23]: ≤ 0.005 µg/mL; MIC [24]: 12.5 µg/mL (≈ 16.6 µM); MIC [25]: ≤ 0.005 µg/mL; MIC [26]: 0.1 µg/mL (≈ 0.133 µM) |
